Data published in patent US20060074098A1, “Methods of treatment of amyloidosis using ethanolcyclicamine aspartyl protease inhibitors” (priority 2004, published 2006).
“And” between values parts separate entries of the source, which are not always exact repeats. Identical values can stand only once.

Columns and labels:
[1] = system: catD / beta-secretase (BACE); experiment: CatD/BACE selectivity (ratio of IC50 values); assay type: biochemical; conditions: each value is an average of four experimental runs; multiple values = more than one experiment
Method: (§1) Investigation of potential beta-secretase inhibitors produced compounds with increased selectivity for beta-secretase over other aspartyl proteases such as cathepsin D (catD), cathepsin E (catE), Human Immunodeficiency Viral (HIV) protease, and renin. Selectivity was calculated as a ratio of inhibition (IC50) values in which the inhibition of beta-secretase was compared to the inhibition of other aspartyl proteases.
The compounds of formula (I) can be selective for beta-secretase versus catD.
(§2) In the following examples, each value is an average of four experimental runs and multiple values for one compound indicate that more than one experiment was conducted.

[2] = system: catE / beta-secretase (BACE); experiment: CatE/BACE selectivity (ratio of IC50 values); assay type: biochemical; conditions: each value is an average of four experimental runs, multiple values = more than one experiment
Method: as §1
The compounds of formula (I) can be selective for beta-secretase versus catE. […] Selectivity is reported as the ratio of IC50(catE):IC50(BACE).
as §2

SMILES	Selectivity IC50 catD/IC50 BACE [1]	Selectivity IC50 catE/IC50 BACE ([2]; listed as 8.3)	Selectivity IC50 catE/IC50 BACE [2]
CCCC1CCNC(C(O)C(Cc2cc(F)cc(F)c2)NC(C)=O)C1 (stereo not shown) [Example 8.1, N-[1-(3,5-Difluoro-benzyl)-2-hydroxy-2-(4-propylpiperidin-2-yl)-ethyl]-acetamide]	> 2.9 and > 2.4	> 2.9 and > 2.4	–
CC(=O)NC(Cc1cc(F)cc(F)c1)C(O)C1CC2CCCCC2CN1 (stereo not shown) [Example 8.2, N-(1-(decahydroisoquinolin-3-yl)-3-(3,5-difluorophenyl)-1-hydroxypropan-2-yl)acetamide]	>3.3	–	>3.3
